Data published in patent US20160237067A1, “SUBSTITUTED PHENYLALANINE DERIVATIVES” (BAYER PHARMA AKTIENGESELLSCHAFT, priority 2013, published 2016).
pIC50: −log10 of the molar value. Structures can show the parent of a compound that is named as a salt.

Experiments:
human factor XIa = target: T1, human factor XIa (Homo sapiens, UniProt P03951); assay: Measurement of FXIa inhibition (fluorogenic peptide substrate Boc-Glu(OBzl)-Ala-Arg-AMC); type: biochemical; conditions: factor XIa from Kordia 0.45 nM; 15 min preincubation; 30 min at 22° C.
T1 construct: purchased Kordia
T1 sequence (P03951 388-625 limits assumed): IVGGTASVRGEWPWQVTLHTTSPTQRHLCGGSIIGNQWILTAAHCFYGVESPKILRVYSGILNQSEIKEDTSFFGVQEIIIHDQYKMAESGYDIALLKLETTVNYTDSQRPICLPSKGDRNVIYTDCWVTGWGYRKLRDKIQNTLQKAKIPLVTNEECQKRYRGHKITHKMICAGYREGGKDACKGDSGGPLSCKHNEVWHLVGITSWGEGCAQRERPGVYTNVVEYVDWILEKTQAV
T1 sequence (P03951 19-387 partner limits assumed): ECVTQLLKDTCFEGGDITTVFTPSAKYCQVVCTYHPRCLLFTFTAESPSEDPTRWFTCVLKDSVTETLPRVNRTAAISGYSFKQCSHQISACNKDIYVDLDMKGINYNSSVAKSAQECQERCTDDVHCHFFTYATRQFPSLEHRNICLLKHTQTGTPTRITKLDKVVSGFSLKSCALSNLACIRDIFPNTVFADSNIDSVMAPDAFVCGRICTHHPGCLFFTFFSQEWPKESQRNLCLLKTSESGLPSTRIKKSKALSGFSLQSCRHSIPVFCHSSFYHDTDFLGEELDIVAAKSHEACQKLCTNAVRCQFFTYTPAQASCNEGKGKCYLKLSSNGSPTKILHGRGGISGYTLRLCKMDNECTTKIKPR
Method: The factor XIa inhibition of the substances according to the invention is determined using a biochemical test system which utilizes the reaction of a peptidic factor XIa substrate to determine the enzymatic activity of human factor XIa. Here, factor XIa cleaves from the peptic factor XIa substrate the C-terminal aminomethylcoumarin (AMC), the fluorescence of which is measured. The determinations are carried out in microtitre plates.
Test substances are dissolved in dimethyl sulphoxide and serially diluted in dimethyl sulphoxide (3000 μM to 0.0078 μM; resulting final concentrations in the test: 50 μM to 0.00013 μM). In each case 1 μl of the diluted substance solutions is placed into the wells of white microtitre plates from Greiner (384 wells). Subsequently, the following are added successively: 20 μl of assay buffer (50 mmol/l Tris buffer pH 7.4; 100 mmol/l sodium chloride; 5 mmol/l calcium chloride; 0.1% bovine serum albumin) and 20 μl of factor XIa from Kordia (0.45 nM in assay buffer). After 15 min of incubation, the enzyme reaction is started by addition of 20 μl of the factor XIa substrate Boc-Glu(OBzl)-Ala-Arg-AMC dissolved in assay buffer (10 μM in assay buffer) from Bachem, the mixture is incubated at room temperature (22° C.) for 30 min and fluorescence is then measured (excitation: 360 nm, emission: 460 nm). The measured emissions of the test batches with test substance are compared to those of control batches without test substance (only dimethyl sulphoxide instead of test substance in dimethyl sulphoxide), and IC50 values are calculated from the concentration/activity relationships.

human and animal plasma = assay: Determination of anticoagulatory activity: activated partial thromboplastin time (aPTT) in plasma; type: biochemical; conditions: C.K. Prest kit, 37° C., 3 minutes incubation, plasma species of Table B not stated
Method: The anticoagulatory activity of the test substances is determined in vitro in human and animal plasma (for example mouse, rat, rabbit, pig and dog plasma). To this end, blood is drawn off in a mixing ratio of sodium citrate/blood of 1:9 using a 0.11 molar sodium citrate solution as receiver. Immediately after the blood has been drawn off, it is mixed thoroughly and centrifuged at about 4000 g for 15 minutes. The supernatant is pipetted off.
The activated partial thromboplastin time (aPTT) is determined in the presence of varying concentrations of test substance or the corresponding solvent using a commercial test kit (C.K. Prest from Diagnostica Stago). The test compounds are incubated with the plasma and the PTT reagent (cephalin, kaolin) at 37° C. for 3 minutes. Coagulation is then started by addition of a 25 mM aqueous calcium chloride solution, and the time when coagulation occurs is determined. The concentration of test substance which brings about a 1.5-fold extension of the aPTT is determined Activity data from this test are listed in Table B below: […]

Compound	pIC50 (human factor XIa)	aPTT (concentration of test substance which brings about a 1.5-fold extension of the aPTT) (human and animal plasma) [µmol/L]
Cc1c(F)cc(C(=O)NC(C)C)cc1-c1ccc(C[C@H](NC(=O)[C@H]2CC[C@H](CN)CC2)C(=O)Nc2ccc(-c3nn[nH]n3)cc2)cc1 [Example 30, 4′-[(2S)-2-({[trans-4-(Aminomethyl)cyclohexyl]carbonyl}amino)-3-oxo-3-{[4-(2H-tetrazol-5-yl)phenyl]amino}propyl]-5-fluoro-N-isopropyl-6-methylbiphenyl-3-carboxamide hydrochloride]	8.57	0.2
Cc1c(F)cc(C(=O)NC2CCNCC2)cc1-c1ccc(C[C@H](NC(=O)[C@H]2CC[C@H](CN)CC2)C(=O)Nc2ccc(-c3nn[nH]n3)cc2)cc1 [Example 31, 4′-[(2S)-2-({[trans-4-(Aminomethyl)cyclohexyl]carbonyl}amino)-3-oxo-3-{[4-(2H-tetrazol-5-yl)phenyl]amino}propyl]-5-fluoro-6-methyl-N-(piperidin-4-yl)biphenyl-3-carboxamide hydrochloride]	8.35	0.16
Cc1ccc(C(=O)N[C@H]2CC[C@H](O)CC2)cc1-c1ccc(C[C@H](NC(=O)[C@H]2CC[C@H](CN)CC2)C(=O)Nc2ccc(-c3nn[nH]n3)cc2)cc1 [Example 32, 4′-[(2S)-2-({[trans-4-(Aminomethyl)cyclohexyl]carbonyl}amino)-3-oxo-3-{[4-(2H-tetrazol-5-yl)phenyl]amino}propyl]-N-(trans-4-hydroxycyclohexyl)-6-methylbiphenyl-3-carboxamide hydrochloride]	8.33	0.15
Cc1ccc(C(=O)N2CCOCC2)cc1-c1ccc(C[C@H](NC(=O)[C@H]2CC[C@H](CN)CC2)C(=O)Nc2ccc(-c3nn[nH]n3)cc2)cc1 [Example 33, trans-4-(Aminomethyl)-N-[(2S)-3-[2′-methyl-5′-(morpholin-4-ylcarbonyl)biphenyl-4-yl]-1-oxo-1-{[4-(2H-tetrazol-5-yl)phenyl]amino}propan-2-yl]cyclohexanecarboxamide hydrochloride]	8.27	0.18
Cc1cc(C(=O)NC2CCN(C)CC2)cc(-c2ccc(C[C@H](NC(=O)[C@H]3CC[C@H](CN)CC3)C(=O)Nc3ccc(-c4nn[nH]n4)cc3)cc2)c1C [Example 34, 4′-[(2S)-2-({[trans-4-(Aminomethyl)cyclohexyl]carbonyl}amino)-3-oxo-3-{[4-(2H-tetrazol-5-yl)phenyl]amino}propyl]-5,6-dimethyl-N-(1-methylpiperidin-4-yl)biphenyl-3-carboxamide hydrochloride]	8.39	0.06
NC[C@H]1CC[C@H](C(=O)N[C@@H](Cc2ccc(-c3ccc(F)c(C(=O)NC4CCNCC4)c3)cc2)C(=O)Nc2ccc(-c3nn[nH]n3)cc2)CC1 [Example 35, 4′-[(2S)-2-({[trans-4-(Aminomethyl)cyclohexyl]carbonyl}amino)-3-oxo-3-{[4-(2H-tetrazol-5-yl)phenyl]amino}propyl]-4-fluoro-N-(piperidin-4-yl)biphenyl-3-carboxamide hydrochloride]	8.00	0.2
Cc1ccc(C(=O)NC2CCNC(=O)C2)cc1-c1ccc(C[C@H](NC(=O)[C@H]2CC[C@H](CN)CC2)C(=O)Nc2ccc(-c3nn[nH]n3)cc2)cc1 (stereo partly drawn) [Example 36, 4′-[(2S)-2-({[trans-4-(Aminomethyl)cyclohexyl]carbonyl}amino)-3-oxo-3-{[4-(2H-tetrazol-5-yl)phenyl]amino}propyl]-6-methyl-N-(2-oxopiperidin-4-yl)biphenyl-3-carboxamide hydrochloride]	8.72	0.14
Cc1cc(C(=O)NC2CCC(N(C)C)CC2)cc(-c2ccc(C[C@H](NC(=O)[C@H]3CC[C@H](CN)CC3)C(=O)Nc3ccc(-c4nn[nH]n4)cc3)cc2)c1 (stereo partly drawn) [Example 37, 4′-[(2S)-24 {[trans-4-(Aminomethyl)cyclohexyl]carbonyl}amino)-3-oxo-3-{[4-(2H-tetrazol-5-yl)phenyl]amino}propyl]-N-[4-(dimethylamino)cyclohexyl]-5-methylbiphenyl-3-carboxamide hydrochloride]	8.12	0.14
Cc1ccc(-c2ccc(C[C@H](NC(=O)[C@H]3CC[C@H](CN)CC3)C(=O)Nc3ccc(-c4nn[nH]n4)cc3)cc2)cc1C(=O)N1CCOCC1 [Example 38, trans-4-(Aminomethyl)-N-[(2S)-3-[4′-methyl-3′-(morpholin-4-ylcarbonyl)biphenyl-4-yl]-1-oxo-1-{[4-(2H-tetrazol-5-yl)phenyl]amino}propan-2-yl]cyclohexanecarboxamide hydrochloride]	8.39	0.22
Cc1cc(C(=O)NC2CCNCC2)cc(-c2ccc(C[C@H](NC(=O)[C@H]3CC[C@H](CN)CC3)C(=O)Nc3ccc(-c4nn[nH]n4)cc3)cc2)c1 [Example 40, 4′-[(2S)-2-({[trans-4-(Aminomethyl)cyclohexyl]carbonyl}amino)-3-oxo-3-{[4-(2H-tetrazol-5-yl)phenyl]amino}propyl]-5-methyl-N-(piperidin-4-yl)biphenyl-3-carboxamide hydrochloride]	8.39	0.06
Cc1ccc(C(=O)NC2CCN(C)CC2)cc1-c1ccc(C[C@H](NC(=O)[C@H]2CC[C@H](CN)CC2)C(=O)Nc2ccc(-c3nc(C(F)(F)C(F)(F)C(=O)O)n[nH]3)cc2)cc1 [Example 42, 3-[5-(4-{[(2S)-2-({[trans-4-(Aminomethyl)cyclohexyl]carbonyl}amino)-3-{2′-methyl-5′-[(1-methylpiperidin-4-yl)carbamoyl]biphenyl-4-yl}propanoyl]amino}phenyl)-1H-1,2,4-triazol-3-yl]-2,2,3,3-tetrafluoropropanoic acid hydrochloride]	8.17	0.16
Cc1ccc(C(=O)NC(C)C)cc1-c1ccc(C[C@H](NC(=O)[C@H]2CC[C@H](CN)CC2)C(=O)Nc2ccc(-c3nc(CCC(=O)O)n[nH]3)cc2)cc1 [Example 43, 3-{5-[4-({(2S)-2-({[trans-4-(Aminomethyl)cyclohexyl]carbonyl}amino)-3-[5′-(isopropylcarbamoyl)-2′-methylbiphenyl-4-yl]propanoyl}amino)phenyl]-1H-1,2,4-triazol-3-yl}propanoic acid hydrochloride]	8.01	0.38
COc1ccc(-c2ccc(C[C@H](NC(=O)[C@H]3CC[C@H](CN)CC3)C(=O)Nc3ccc(-c4nc(C(F)(F)C(F)(F)C(=O)O)n[nH]4)cc3)cc2)cc1S(=O)(=O)N1CCOCC1 [Example 44, 3-{5-[4-({(2S)-2-({[trans-4-(Aminomethyl)cyclohexyl]carbonyl}amino)-3-[4′-methoxy-3′-(morpholin-4-ylsulphonyl)biphenyl-4-yl]propanoyl}amino)phenyl]-1H-1,2,4-triazol-3-yl}-2,2,3,3-tetrafluoropropanoic acid hydrochloride]	8.66	0.2
